The test system of data set [1] is JeKo-1. Kind of data set: cells. As to conditions: Homo sapiens, JeKo-1, 72 h.
Description: Antiproliferative activity against human JeKo-1 cells assessed as inhibition of cell growth incubated for 72 hrs by CCK8 assay
Data set [2] relates to K562. Kind of data set: cells. As to conditions: Homo sapiens, K562, 72 h.
Description: Antiproliferative activity against human K562 cells assessed as inhibition of cell growth incubated for 72 hrs by CCK8 assay
Data set [3] concerns JeKo-1. Nature of the data set: Antitumor activity against human JeKo-1 cells xenografted NOD/SCID mouse assessed as tumor growth inhibition at 50 mg/kg, ip measured for 16 days. Type of data set: functional. As to conditions: JeKo-1, 384 h, time 16 day, read-out: TGI. (Xenograft models place foreign cells or tissue in a host animal.)
The subject of data set [4] is JeKo-1. Kind of data set: Antitumor activity against human JeKo-1 cells xenografted NOD/SCID mouse assessed as reduction in tumor weight at 50 mg/kg, ip measured for 16 days. Type of data set: functional. Conditions: time 16 day.
Data set [5] deals with MOLT-4. Nature of the data set: cells. Conditions: Homo sapiens, MOLT-4, 72 h.
Description: Antiproliferative activity against human MOLT-4 cells assessed as inhibition of cell growth incubated for 72 hrs by CCK8 assay
Data set [6] has as its system MV4-11. Nature of the data set: cells. Conditions: Homo sapiens, MV4-11, 72 h.
Data set [7] in a line: Metabolic stability in human liver microsome assessed as half life preincubated with compound for 5 mins followed by NADPH addition and measured upto 60 mins by LC-MS/MS analysis. The data set is classed as ADME. Conditions: liver microsomes, time < 65 min. A general note: Microsomes from liver hold many membrane-bound enzymes, among them those of drug oxidation.
A short description of data set [8]: Metabolic stability in human liver microsome assessed as intrinsic clearance preincubated with compound for 5 mins followed by NADPH addition and measured upto 60 mins by LC-MS/MS analysis. Type of data set: ADME. Conditions: liver microsomes, time < 65 min, read-out: CLH.
Data set [9] has as its system JeKo-1. Nature of the data set: Induction of apoptosis in human JeKo-1 cells assessed as late apoptotic cells at 750 nM incubated for 72 hrs by Annexin VFITC/PI staining based flow cytometry analysis (reference value: 1.42%). Type of data set: functional.
Data set [10] has as its system JeKo-1. Nature of the data set: Induction of apoptosis in human JeKo-1 cells assessed as viable cells at 750 nM incubated for 72 hrs by Annexin VFITC/PI staining based flow cytometry analysis (reference value: 94.81%). Type of data set: functional. Background: In flow cytometry, cells or beads pass a laser one at a time.
In data set [11] the test system is JeKo-1. Nature of the data set: Induction of apoptosis in human JeKo-1 cells assessed as necrotic cells at 750 nM incubated for 72 hrs by Annexin VFITC/PI staining based flow cytometry analysis (reference value: 0.67%). Type of data set: functional.
Data set [12] concerns JeKo-1. Nature of the data set: Induction of apoptosis in human JeKo-1 cells assessed as early apoptotic cells at 750 nM incubated for 72 hrs by Annexin VFITC/PI staining based flow cytometry analysis (reference value: 3.10%). Type of data set: functional.
Data set [13] in a line: in vitro. As to conditions: human, Caco-2.
Description: Apparent permeability across basolateral to apical side in human Caco-2 cells incubated for 120 mins by LC-MS/MS analysis
For data set [14], the system named is P-glycoprotein. Kind of data set: in vitro. Conditions: human, Caco-2.
Description: Efflux ratio of apparent permeability across basolateral to apical side over apical to basolateral side in human Caco-2 cells incubated for 120 mins in presence of P-glycoprotein by LC-MS/MS analysis
The nature of data set [15]: in vitro. Conditions: human, Caco-2. This is another data set of the same source.
Description: Apparent permeability across apical to basolateral side in human Caco-2 cells incubated for 120 mins by LC-MS/MS analysis
Data set [16] addresses Tyrosine-protein kinase BTK (Homo sapiens, UniProt Q06187). Kind of data set: Inhibition of BTK (unknown origin) incubated for 40 mins by radiometric kinase assay.
For data set [17], the system named is MV4-11. Nature of the data set: Antitumor activity against human MV4-11 cells xenografted NOD/SCID mouse assessed as increase in tumor necrotic cells at 20 mg/kg, ip administered once daily for 21 days by H and E staining analysis. As to conditions: time 21.0 day. Type of data set: functional, organism-based.

Activity calls are given as the source filed them. The rule behind the calls is not given here.

Sequence of Tyrosine-protein kinase BTK (Q06187 whole entry): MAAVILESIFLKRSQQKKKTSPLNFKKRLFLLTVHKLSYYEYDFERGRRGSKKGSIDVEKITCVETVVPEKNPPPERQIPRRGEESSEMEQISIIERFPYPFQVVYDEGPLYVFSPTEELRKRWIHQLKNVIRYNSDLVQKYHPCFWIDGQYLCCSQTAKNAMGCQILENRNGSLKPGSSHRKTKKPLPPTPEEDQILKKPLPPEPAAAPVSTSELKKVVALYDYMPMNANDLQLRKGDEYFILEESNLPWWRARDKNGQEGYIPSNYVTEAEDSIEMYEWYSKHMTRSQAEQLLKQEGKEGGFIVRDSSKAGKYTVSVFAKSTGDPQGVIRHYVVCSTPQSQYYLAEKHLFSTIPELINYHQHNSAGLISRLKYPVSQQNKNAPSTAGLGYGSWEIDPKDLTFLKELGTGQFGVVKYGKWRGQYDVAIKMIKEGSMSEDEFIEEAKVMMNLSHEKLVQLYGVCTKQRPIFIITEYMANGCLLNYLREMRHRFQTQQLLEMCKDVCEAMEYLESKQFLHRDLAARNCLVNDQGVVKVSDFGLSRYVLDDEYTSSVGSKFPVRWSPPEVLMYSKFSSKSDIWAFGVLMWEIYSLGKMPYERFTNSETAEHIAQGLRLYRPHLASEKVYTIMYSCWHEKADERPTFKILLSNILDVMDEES

On to `NNC(=O)c1ccccc1Nc1nc(Nc2ccc(N3CCCCC3)cc2)ncc1F`, for which 1.88 µM corresponded to half-maximal inhibition in data set [1] (IC50).

For `C=CC(=O)Nc1cccc(Nc2nc(Nc3ccc(OCCOC)cc3)ncc2F)c1` [SPEBRUTINIB], the half-inhibitory concentration (IC50) – broadly, the point on the concentration scale where inhibition reaches its midpoint – came out at 7.4 µM in [2], 1.48 µM in data set [1], 1.46 µM in data set [5] and 0.245 µM in [6]. Further, the inhibition in vivo at 50 mg/kg in data set [3] was 38.1%. In data set [4], the Activity was found to be 0.69 g.

As to `NNC(=O)c1cccc(Nc2nc(Nc3ccc(N4CCCCC4)cc3)ncc2F)c1`, the half-maximal inhibitory concentration (IC50) in [1] amounted to 1.24 µM.

In data set [1], `NNC(=O)c1ccc(Nc2nc(Nc3ccc(N4CCCCC4)cc3)ncc2F)cc1` returned an IC50 of more than 2 µM.

`CN1CCN(c2ccc(Nc3ncc(F)c(Nc4cccc(C(=O)NN)c4)n3)cc2F)CC1`: in [1], the IC50 is 0.222 µM.

The molecule `COc1cc(N2CCN(C)CC2)ccc1Nc1ncc(F)c(Nc2ccccc2C(=O)NN)n1` registered an IC50 in [1] of more than 2 µM.

On to `O=C(O)Cc1ccccc1Nc1c(Cl)cccc1Cl` [DICLOFENAC], for which the half-life (as a rule, the time in which the quantity being followed falls by half) in data set [7] was found to be 5.44 min. The CLint scaled in [8] was determined as 230 mL/min/kg.

In turn, `CCN1CCN(c2ccc(Nc3ncc(F)c(Nc4ccccc4C(=O)NN)n3)cc2)CC1` had a half-maximal inhibitory concentration (IC50) in [1] of 1.28 µM. In other words, the single-digit micromolar range.

Take `CCN1CCN(c2ccc(Nc3ncc(F)c(Nc4cccc(C(=O)NN)c4)n3)cc2)CC1`: in [1], half-maximal inhibition (IC50) was put at 0.54 µM.

Consider `CN1CCN(c2ccc(Nc3ncc(F)c(Nc4cccc(C(=O)NN)c4)n3)cc2)CC1`, for which the IC50 in data set [1] worked out at 0.562 µM. The IC50 values of the last two molecules are within 1.5-fold of each other.

On to `CN1CCN(c2ccc(Nc3ncc(F)c(Nc4ccc(C(=O)NN)cc4)n3)cc2)CC1`, for which the half-maximal inhibitory concentration (IC50) in [1] came to 1.41 µM. This IC50 is about 2.5-fold higher than that of the molecule before.

Consider `C=CC(=O)N1CCC[C@@H](n2nc(-c3ccc(Oc4ccccc4)cc3)c3c(N)ncnc32)C1` [IBRUTINIB], for which the Activity in [9] turned out to be 0.32%; in [10] it was 85.08%; in [11], 0.18%; in data set [12], 14.42%. For the same molecule, the 50% inhibitory concentration (IC50) in data set [2] worked out at 5.57 µM; in data set [1] it was 1.68 µM; in [5], 3.52 µM; in data set [6], 0.423 µM.

Regarding `NNC(=O)c1ccc(Nc2nc(Nc3ccc(N4CCOCC4)cc3)ncc2F)cc1`, in data set [1], the half-inhibitory concentration (IC50) is more than 2 µM.

`COc1cc(N2CCN(C)CC2)ccc1Nc1ncc(F)c(Nc2ccc(C(=O)NN)cc2)n1` returned an IC50 in [1] of more than 2 µM.

Take `CC(C)NCC(O)COc1cccc2ccccc12` (stereo unspecified) [PROPRANOLOL]: in data set [13], the Papp B→A (in general, the apparent permeability from the basolateral to the apical side of a cell layer) at 2 h was found to be 20.1 ×10⁻⁶ cm/s. The efflux ratio (in general, a quotient of directional permeabilities that is used to spot active efflux) at 2 h in data set [14] stood at 0.62. In data set [15], the apical-to-basolateral permeability (Papp A→B) (commonly the apparent permeability from the apical to the basolateral side of a cell layer) at 2 h is 32.4 ×10⁻⁶ cm/s.

Regarding `CN1CCN(c2ccc(Nc3ncc(F)c(Nc4ccc(C(=O)NN)cc4)n3)cc2F)CC1`, the IC50 in data set [1] was 1.09 µM.

Turning to `NNC(=O)c1ccccc1Nc1nc(Nc2ccc(N3CCOCC3)cc2)ncc1F`, the IC50 in data set [2] was more than 25 µM; in [16], 0.105 µM; in [1] it was 0.088 µM; in data set [5] it was 0.239 µM; in data set [6] it was 0.041 µM.

Consider `C[C@H]1O[C@@H](O[C@H]2[C@@H](O)C[C@H](O[C@H]3[C@@H](O)C[C@H](O[C@H]4CC[C@@]5(C)[C@H](CC[C@@H]6[C@@H]5C[C@@H](O)[C@]5(C)[C@@H](C7=CC(=O)OC7)CC[C@]65O)C4)O[C@@H]3C)O[C@@H]2C)C[C@H](O)[C@@H]1O` [DIGOXIN], for which the basolateral-to-apical permeability (Papp B→A) at 2 h in data set [13] was 11.2 ×10⁻⁶ cm/s. Further, the efflux ratio at 2 h in data set [14] was found to be 44.1. The molecule also had a Papp A→B at 2 h in data set [15] of 0.25 ×10⁻⁶ cm/s.

For the molecule `NNC(=O)c1cccc(Nc2nc(Nc3ccc(N4CCOCC4)cc3)ncc2F)c1`, the half-maximal inhibitory concentration (IC50) in data set [1] is 0.801 µM.

In the case of `CCN1CCN(c2ccc(Nc3ncc(F)c(Nc4ccc(C(=O)NN)cc4)n3)cc2)CC1`, in [1], half-maximal inhibition (IC50) was put at 1.75 µM.

With `CN1CCN(c2ccc(Nc3ncc(F)c(Nc4ccccc4C(=O)NN)n3)cc2F)CC1`, the 50% inhibitory concentration (IC50) in data set [2] is 0.69 µM; in data set [16], 0.084 µM; in data set [1] it was 0.052 µM; in data set [5], 0.065 µM; in data set [6], 0.031 µM.

As to `CNC(=O)c1cc(Oc2ccc(NC(=O)Nc3ccc(Cl)c(C(F)(F)F)c3)cc2)ccn1` [SORAFENIB], the result in [17] was Active. In addition, the IC50 in [2] is 7.74 µM; in [1] it was 1.07 µM; in [5], 2.5 µM.

`COc1cc(N2CCN(C)CC2)ccc1Nc1ncc(F)c(Nc2cccc(C(=O)NN)c2)n1` registered an IC50 in data set [1] of more than 2 µM.

For the origin of these results see ChEMBL document CHEMBL5385861, “Development of novel hydrazidoarylaminopyrimidine-based BTK/FLT3 dual inhibitors with potent in vivo anti-hematological malignancies effects” (Eur J Med Chem, 2023).
